{
  "source": "paper PMC5117811",
  "about": "(Nature chemical biology, 2016)",
  "key": {"[1]": {"assay": "Plasma pharmacokinetic analyses in CD1 mice", "details": "50 mg/kg intraperitoneally"}, "BRD4(1) [2]": {"biological_target": "T1, BRD4(1) (Homo sapiens, UniProt O60885)", "assay": "BRD4", "format": "binding", "details": "BRD4(1) AlphaScreen, compared to JQ1"}, "BRD4(1,2)": {"biological_target": "BRD4(1,2) (Homo sapiens, UniProt O60885)", "assay": "BROMOscan"}, "BRD4(2)": {"biological_target": "BRD4(2) (Homo sapiens, UniProt O60885)", "assay": "BROMOscan"}, "BRD4": {"biological_target": "BRD4 (Homo sapiens, UniProt O60885)", "assay": "Immunoblot for BRD4 protein level in MV4", "format": "cell-based", "details": "MV4;11 cells"}, "HEXIM1": {"test_system": "HEXIM1", "assay": "Immunoblot for HEXIM1 in MV4", "format": "cell-based, human", "details": "MV4;11 cells, 10 nM, later time points (4–24 hours)"}, "BRD4(1) [3]": {"biological_target": "T1, BRD4(1)", "assay": "BROMOscan"}, "MYC": {"test_system": "MYC", "assay": "Immunoblot for MYC in MV4", "format": "cell-based, human", "details": "MV4;11 cells"}, "[4]": {"biological_target": "BRD4 (full-length, short-iso.) (Homo sapiens, UniProt O60885)", "assay": "BROMOscan"}},
  "data": [
    {"smiles": "COC(=O)C[C@@H]1N=C(c2ccc(Cl)cc2)c2c(sc(C(=O)NCCNC(=O)C[C@@H]3N=C(c4ccc(Cl)cc4)c4c(sc(C)c4C)-n4c(C)nnc43)c2C)-n2c(C)nnc21", "note": "[(6S+2S)-PEG0, Methyl 2-((S)-4-(4-chlorophenyl)-2-((2-(2-((S)-4-(4-chlorophenyl)-2,3,9-trimethyl-6H-thieno[3,2-f][1,2,4]triazolo[4,3-a][1,4]diazepin-6-yl)acetamido)ethyl)carbamoyl)-3,9-dimethyl-6H-thieno[3,2-f][1,2,4]triazolo[4,3-a][1,4]diazepin-6-yl)acetate]", "values": [
      {"measurement": "PK properties", "setting": "[1]", "value": "comparable PK properties to MT1"}
    ]},
    {"smiles": "COC(=O)C[C@@H]1N=C(c2ccc(Cl)cc2)c2c(sc(C(=O)NCCOCCNC(=O)c3sc4c(c3C)C(c3ccc(Cl)cc3)=N[C@@H](CC(=O)OC)c3nnc(C)n3-4)c2C)-n2c(C)nnc21", "note": "[(2S+2S)-PEG1, Dimethyl 2,2'-((6S,6'S)-(((oxybis(ethane-2,1-diyl))bis(azanediyl))bis(carbonyl))bis(4-(4-chlorophenyl)-3,9-dimethyl-6H-thieno[3,2-f][1,2,4]triazolo[4,3-a][1,4]diazepine-2,6-diyl))diacetate]", "values": [
      {"measurement": "increase in biochemical potency", "setting": "BRD4(1) [2]", "value": 20, "unit": "fold"}
    ]},
    {"smiles": "COC(=O)C[C@@H]1N=C(c2ccc(Cl)cc2)c2c(sc(C(=O)NCCOCCNC(=O)C[C@@H]3N=C(c4ccc(Cl)cc4)c4c(sc(C)c4C)-n4c(C)nnc43)c2C)-n2c(C)nnc21", "note": "[(6S+2S)-PEG1, Methyl 2-((S)-4-(4-chlorophenyl)-2-((2-(2-(2-((S)-4-(4-chlorophenyl)-2,3,9-trimethyl-6H-thieno[3,2-f][1,2,4]triazolo[4,3-a][1,4]diazepin-6-yl)acetamido)ethoxy)ethyl)carbamoyl)-3,9-dimethyl-6H-thieno[3,2-f][1,2,4]triazolo[4,3-a][1,4]diazepin-6-yl)acetate]", "values": [
      {"measurement": "displacement of phage expressing tandem bromodomain construct BRD4(1,2)", "setting": "BRD4(1,2)", "value": "picomolar"},
      {"measurement": "displacement of phage expressing BRD4(2)", "setting": "BRD4(2)", "value": "picomolar"},
      {"measurement": "effect on BRD4 protein stability (degradation)", "setting": "BRD4", "value": "No effect on protein stability"},
      {"measurement": "HEXIM1 expression", "setting": "HEXIM1", "value": "upregulation"},
      {"measurement": "displacement of phage expressing BRD4(1)", "setting": "BRD4(1) [3]", "value": "picomolar"},
      {"measurement": "time of maximum effect on MYC", "setting": "MYC; 10 nM", "value": 2, "unit": "h"},
      {"measurement": "lowest concentration at which MYC was downregulated", "setting": "MYC; two hours of treatment", "value": 10, "unit": "nM"},
      {"measurement": "displacement of phage expressing full length protein BRD4(full)", "setting": "[4]", "value": "picomolar"}
    ]}
  ]
}
